Measurements reported in ChEMBL document CHEMBL4507303, “Data for DCP probe TP-004” (2021).

How the values were obtained:
[1] = target: Tyrosine-protein kinase BTK (Homo sapiens) (UniProt Q06187); conditions: Compound concentration 1000.0 nM
[2] = target: Calcium/calmodulin-dependent protein kinase kinase 2 (Homo sapiens) (UniProt Q96RR4); conditions: Compound concentration 1000.0 nM
[3] = target: Peripheral plasma membrane protein CASK (Homo sapiens) (UniProt O14936); conditions: Compound concentration 1000.0 nM
[4] = target: Cyclin-dependent kinase 19 (Homo sapiens) (UniProt Q9BWU1); conditions: Compound concentration 1000.0 nM
[5] = target: Cyclin-dependent kinase 2 (Homo sapiens) (UniProt P24941); conditions: Compound concentration 1000.0 nM
[6] = target: Cyclin-dependent kinase 7 (Homo sapiens) (UniProt P50613); conditions: Compound concentration 1000.0 nM
[7] = target: Cyclin-dependent kinase 8 (Homo sapiens) (UniProt P49336); conditions: Compound concentration 1000.0 nM
[8] = target: Cyclin-dependent kinase-like 3 (Homo sapiens) (UniProt Q8IVW4); conditions: Compound concentration 1000.0 nM
[9] = target: Myotonin-protein kinase (Homo sapiens) (UniProt Q09013); conditions: Compound concentration 1000.0 nM
[10] = target: Dual specificity tyrosine-phosphorylation-regulated kinase 2 (Homo sapiens) (UniProt Q92630); conditions: Compound concentration 1000.0 nM
[11] = tested on: Epidermal growth factor receptor (Homo sapiens), P00533 [L858R]; conditions: Compound concentration 1000.0 nM
[12] = tested on: Epidermal growth factor receptor (Homo sapiens), P00533 [L861Q]; conditions: Compound concentration 1000.0 nM
[13] = target: Mitogen-activated protein kinase 6 (Homo sapiens) (UniProt Q16659); conditions: Compound concentration 1000.0 nM
[14] = target: Tyrosine-protein kinase Fes/Fps (Homo sapiens) (UniProt P07332); conditions: Compound concentration 1000.0 nM
[15] = target: Fibroblast growth factor receptor 2 (Homo sapiens) (UniProt P21802); conditions: Compound concentration 1000.0 nM
[16] = tested on: Receptor-type tyrosine-protein kinase FLT3 (Homo sapiens), P36888 [R834Q]; conditions: Compound concentration 1000.0 nM
[17] = target: G protein-coupled receptor kinase 4 (Homo sapiens) (UniProt P32298); conditions: Compound concentration 1000.0 nM
[18] = target: Serine/threonine-protein kinase haspin (Homo sapiens) (UniProt Q8TF76); conditions: Compound concentration 1000.0 nM
[19] = target: Homeodomain-interacting protein kinase 2 (Homo sapiens) (UniProt Q9H2X6); conditions: Compound concentration 1000.0 nM
[20] = target: Homeodomain-interacting protein kinase 4 (Homo sapiens) (UniProt Q8NE63); conditions: Compound concentration 1000.0 nM
[21] = target: Insulin receptor (Homo sapiens) (UniProt P06213); conditions: Compound concentration 1000.0 nM
[22] = tested on: Mast/stem cell growth factor receptor Kit (Homo sapiens), P10721 [A829P]; conditions: Compound concentration 1000.0 nM
[23] = tested on: Leucine-rich repeat serine/threonine-protein kinase 2 (Homo sapiens), Q5S007 [G2019S]; conditions: Compound concentration 1000.0 nM
[24] = target: Leukocyte tyrosine kinase receptor (Homo sapiens) (UniProt P29376); conditions: Compound concentration 1000.0 nM
[25] = target: MAP kinase-activated protein kinase 5 (Homo sapiens) (UniProt Q8IW41); conditions: Compound concentration 1000.0 nM
[26] = target: Dual specificity mitogen-activated protein kinase kinase 7 (Homo sapiens) (UniProt O14733); conditions: Compound concentration 1000.0 nM
[27] = target: MAP kinase-interacting serine/threonine-protein kinase 2 (Homo sapiens) (UniProt Q9HBH9); conditions: Compound concentration 1000.0 nM
[28] = target: Myosin-IIIb (Homo sapiens) (UniProt Q8WXR4); conditions: Compound concentration 1000.0 nM
[29] = target: Serine/threonine-protein kinase NIM1 (Homo sapiens) (UniProt Q8IY84); conditions: Compound concentration 1000.0 nM
[30] = tested on: Phosphatidylinositol 4,5-bisphosphate 3-kinase catalytic subunit alpha isoform (Homo sapiens), P42336 [E542K]; conditions: Compound concentration 1000.0 nM
[31] = tested on: Phosphatidylinositol 4,5-bisphosphate 3-kinase catalytic subunit alpha isoform (Homo sapiens), P42336 [E545K]; conditions: Compound concentration 1000.0 nM
[32] = tested on: Phosphatidylinositol 4,5-bisphosphate 3-kinase catalytic subunit alpha isoform (Homo sapiens), P42336 [I800L]; conditions: Compound concentration 1000.0 nM
[33] = target: Phosphatidylinositol 5-phosphate 4-kinase type-2 gamma (Homo sapiens) (UniProt Q8TBX8); conditions: Compound concentration 1000.0 nM
[34] = target: Serine/threonine-protein kinase PLK4 (Homo sapiens) (UniProt O00444); conditions: Compound concentration 1000.0 nM
[35] = target: Serine/threonine-protein kinase RIO1 (Homo sapiens) (UniProt Q9BRS2); conditions: Compound concentration 1000.0 nM
[36] = target: Ribosomal protein S6 kinase alpha-5 (Homo sapiens) (UniProt O75582); conditions: Compound concentration 1000.0 nM
[37] = target: Serine/threonine-protein kinase 33 (Homo sapiens) (UniProt Q9BYT3); conditions: Compound concentration 1000.0 nM
[38] = target: Serine/threonine-protein kinase TAO1 (Homo sapiens) (UniProt Q7L7X3); conditions: Compound concentration 1000.0 nM
[39] = target: Serine/threonine-protein kinase tousled-like 2 (Homo sapiens) (UniProt Q86UE8); conditions: Compound concentration 1000.0 nM
[40] = target: Testis-specific serine/threonine-protein kinase 3 (Homo sapiens) (UniProt Q96PN8); conditions: Compound concentration 1000.0 nM
[41] = target: Serine/threonine-protein kinase WNK2 (Homo sapiens) (UniProt Q9Y3S1); conditions: Compound concentration 1000.0 nM
[42] = target: Serine/threonine-protein kinase 32C (Homo sapiens) (UniProt Q86UX6); conditions: Compound concentration 1000.0 nM
[43] = target: Serine/threonine-protein kinase 25 (Homo sapiens) (UniProt O00506); conditions: Compound concentration 1000.0 nM
[44] = target: 5-hydroxytryptamine receptor 5A (Homo sapiens) (UniProt P47898); conditions: Compound concentration 10.0 uM
[45] = target: Sodium-dependent dopamine transporter (Homo sapiens, UniProt Q01959); conditions: Compound concentration 10.0 uM
Chain of Sodium-dependent dopamine transporter (Q01959 whole entry): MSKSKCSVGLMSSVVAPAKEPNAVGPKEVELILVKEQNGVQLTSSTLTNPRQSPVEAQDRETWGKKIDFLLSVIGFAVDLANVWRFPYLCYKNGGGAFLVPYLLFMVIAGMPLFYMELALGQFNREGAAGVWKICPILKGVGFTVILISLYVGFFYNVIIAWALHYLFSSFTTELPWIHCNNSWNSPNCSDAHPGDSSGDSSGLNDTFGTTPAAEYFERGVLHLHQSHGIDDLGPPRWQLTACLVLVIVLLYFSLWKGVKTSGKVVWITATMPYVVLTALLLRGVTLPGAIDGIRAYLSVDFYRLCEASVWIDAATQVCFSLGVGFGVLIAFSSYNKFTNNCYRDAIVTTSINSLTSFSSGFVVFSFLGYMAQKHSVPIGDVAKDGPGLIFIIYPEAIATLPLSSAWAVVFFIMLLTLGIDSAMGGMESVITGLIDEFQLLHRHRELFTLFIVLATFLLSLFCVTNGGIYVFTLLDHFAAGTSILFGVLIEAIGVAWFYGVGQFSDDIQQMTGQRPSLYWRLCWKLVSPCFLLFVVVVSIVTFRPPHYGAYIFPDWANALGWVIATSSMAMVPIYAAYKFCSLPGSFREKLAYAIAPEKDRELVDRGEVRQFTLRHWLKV

Chain of Leukocyte tyrosine kinase receptor (Homo sapiens) (P29376 whole entry): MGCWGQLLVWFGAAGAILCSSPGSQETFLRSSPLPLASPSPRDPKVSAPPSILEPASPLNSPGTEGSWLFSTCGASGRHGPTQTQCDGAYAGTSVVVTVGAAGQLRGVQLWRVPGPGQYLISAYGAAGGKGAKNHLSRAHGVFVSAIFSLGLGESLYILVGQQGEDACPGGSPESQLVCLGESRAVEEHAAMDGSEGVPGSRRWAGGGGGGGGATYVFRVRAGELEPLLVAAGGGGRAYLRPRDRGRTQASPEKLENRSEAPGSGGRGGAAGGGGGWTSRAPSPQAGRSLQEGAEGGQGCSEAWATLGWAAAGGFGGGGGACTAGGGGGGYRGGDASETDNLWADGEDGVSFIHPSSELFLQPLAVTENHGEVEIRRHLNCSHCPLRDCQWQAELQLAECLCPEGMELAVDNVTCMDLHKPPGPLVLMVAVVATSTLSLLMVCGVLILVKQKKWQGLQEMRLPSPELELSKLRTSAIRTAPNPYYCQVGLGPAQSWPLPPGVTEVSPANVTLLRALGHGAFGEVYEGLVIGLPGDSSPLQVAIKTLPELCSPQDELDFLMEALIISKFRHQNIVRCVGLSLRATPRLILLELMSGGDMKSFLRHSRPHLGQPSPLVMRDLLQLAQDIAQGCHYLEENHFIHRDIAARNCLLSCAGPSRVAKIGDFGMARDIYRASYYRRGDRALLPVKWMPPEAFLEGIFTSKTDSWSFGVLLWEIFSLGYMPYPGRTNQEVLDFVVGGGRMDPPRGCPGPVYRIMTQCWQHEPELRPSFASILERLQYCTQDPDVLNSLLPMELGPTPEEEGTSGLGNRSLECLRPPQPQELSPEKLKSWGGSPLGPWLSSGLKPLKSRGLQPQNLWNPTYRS
Chain of Phosphatidylinositol 4,5-bisphosphate 3-kinase catalytic subunit alpha isoform (Homo sapiens), P42336 [E545K] (P42336 whole entry E545K, canonical isoform): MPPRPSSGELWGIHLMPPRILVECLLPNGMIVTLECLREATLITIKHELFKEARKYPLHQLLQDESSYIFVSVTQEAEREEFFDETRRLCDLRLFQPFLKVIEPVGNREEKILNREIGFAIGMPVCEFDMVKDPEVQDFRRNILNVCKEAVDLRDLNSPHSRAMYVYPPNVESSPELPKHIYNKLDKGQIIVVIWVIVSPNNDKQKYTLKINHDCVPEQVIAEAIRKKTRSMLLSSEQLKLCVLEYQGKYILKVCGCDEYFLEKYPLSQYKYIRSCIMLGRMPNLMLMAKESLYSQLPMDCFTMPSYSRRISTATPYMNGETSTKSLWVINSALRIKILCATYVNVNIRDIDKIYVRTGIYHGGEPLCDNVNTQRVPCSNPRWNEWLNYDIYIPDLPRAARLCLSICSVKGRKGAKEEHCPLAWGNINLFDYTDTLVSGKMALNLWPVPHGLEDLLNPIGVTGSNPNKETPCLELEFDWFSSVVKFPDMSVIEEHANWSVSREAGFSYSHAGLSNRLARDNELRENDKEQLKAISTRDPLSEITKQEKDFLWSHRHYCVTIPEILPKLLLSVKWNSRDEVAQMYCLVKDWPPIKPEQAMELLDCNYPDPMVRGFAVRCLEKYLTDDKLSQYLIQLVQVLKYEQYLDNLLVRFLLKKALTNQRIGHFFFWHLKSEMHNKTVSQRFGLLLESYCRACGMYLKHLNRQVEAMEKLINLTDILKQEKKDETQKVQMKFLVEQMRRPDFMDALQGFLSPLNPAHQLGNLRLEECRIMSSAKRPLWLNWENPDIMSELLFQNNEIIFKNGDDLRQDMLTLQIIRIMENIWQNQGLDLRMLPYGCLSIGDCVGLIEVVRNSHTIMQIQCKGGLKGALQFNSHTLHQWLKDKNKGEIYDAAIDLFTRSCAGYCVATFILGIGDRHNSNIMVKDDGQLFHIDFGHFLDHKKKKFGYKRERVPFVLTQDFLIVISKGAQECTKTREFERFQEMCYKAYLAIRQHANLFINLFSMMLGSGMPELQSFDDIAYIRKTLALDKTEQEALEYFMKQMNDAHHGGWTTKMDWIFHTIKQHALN
Chain of Tyrosine-protein kinase Fes/Fps (Homo sapiens) (P07332 whole entry): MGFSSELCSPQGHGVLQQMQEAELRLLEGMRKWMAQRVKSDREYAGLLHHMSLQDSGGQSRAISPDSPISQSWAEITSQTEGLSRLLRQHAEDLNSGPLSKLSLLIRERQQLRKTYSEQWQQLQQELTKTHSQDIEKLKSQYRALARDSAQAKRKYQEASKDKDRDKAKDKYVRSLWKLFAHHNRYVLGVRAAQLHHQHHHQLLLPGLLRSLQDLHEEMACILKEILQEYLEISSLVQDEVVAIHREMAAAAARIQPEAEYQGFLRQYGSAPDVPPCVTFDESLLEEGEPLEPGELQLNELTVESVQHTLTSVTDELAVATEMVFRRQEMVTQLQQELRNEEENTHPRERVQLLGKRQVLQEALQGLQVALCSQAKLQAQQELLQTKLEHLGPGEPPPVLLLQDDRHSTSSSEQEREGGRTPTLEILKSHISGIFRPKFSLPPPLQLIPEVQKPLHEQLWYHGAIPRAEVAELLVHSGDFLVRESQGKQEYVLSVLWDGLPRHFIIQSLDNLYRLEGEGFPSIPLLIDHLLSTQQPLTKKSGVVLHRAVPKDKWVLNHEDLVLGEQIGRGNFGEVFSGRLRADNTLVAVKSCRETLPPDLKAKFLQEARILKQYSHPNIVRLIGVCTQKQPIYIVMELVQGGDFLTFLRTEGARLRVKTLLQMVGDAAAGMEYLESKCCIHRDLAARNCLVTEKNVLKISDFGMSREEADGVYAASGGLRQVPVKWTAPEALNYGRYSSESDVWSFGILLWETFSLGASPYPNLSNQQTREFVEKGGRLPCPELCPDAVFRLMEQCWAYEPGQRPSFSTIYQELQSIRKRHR
Chain of Phosphatidylinositol 5-phosphate 4-kinase type-2 gamma (Homo sapiens) (Q8TBX8 whole entry): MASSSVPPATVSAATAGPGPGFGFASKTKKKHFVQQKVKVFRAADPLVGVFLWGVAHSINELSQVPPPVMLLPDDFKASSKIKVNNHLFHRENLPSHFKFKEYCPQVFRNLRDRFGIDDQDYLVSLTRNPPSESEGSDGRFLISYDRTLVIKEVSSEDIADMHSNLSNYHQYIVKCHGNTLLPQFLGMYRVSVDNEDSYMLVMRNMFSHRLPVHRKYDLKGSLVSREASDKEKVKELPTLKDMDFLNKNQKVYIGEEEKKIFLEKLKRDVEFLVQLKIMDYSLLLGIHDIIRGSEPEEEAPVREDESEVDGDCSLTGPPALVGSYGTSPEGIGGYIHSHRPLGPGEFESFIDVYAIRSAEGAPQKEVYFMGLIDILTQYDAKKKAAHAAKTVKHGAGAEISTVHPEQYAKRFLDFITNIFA
Chain of Serine/threonine-protein kinase NIM1 (Homo sapiens) (Q8IY84 whole entry, canonical isoform): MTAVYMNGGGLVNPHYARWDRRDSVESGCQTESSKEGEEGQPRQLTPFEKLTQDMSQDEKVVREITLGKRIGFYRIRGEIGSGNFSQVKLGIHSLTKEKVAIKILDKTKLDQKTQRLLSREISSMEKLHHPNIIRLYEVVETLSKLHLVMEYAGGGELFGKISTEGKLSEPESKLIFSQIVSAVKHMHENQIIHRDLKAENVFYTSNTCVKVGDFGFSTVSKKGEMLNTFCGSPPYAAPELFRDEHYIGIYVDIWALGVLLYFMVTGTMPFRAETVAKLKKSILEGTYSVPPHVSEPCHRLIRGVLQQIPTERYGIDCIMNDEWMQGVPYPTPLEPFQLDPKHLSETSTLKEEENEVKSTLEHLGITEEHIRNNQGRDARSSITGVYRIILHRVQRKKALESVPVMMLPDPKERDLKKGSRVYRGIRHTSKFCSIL
Chain of Tyrosine-protein kinase BTK (Homo sapiens) (Q06187 whole entry): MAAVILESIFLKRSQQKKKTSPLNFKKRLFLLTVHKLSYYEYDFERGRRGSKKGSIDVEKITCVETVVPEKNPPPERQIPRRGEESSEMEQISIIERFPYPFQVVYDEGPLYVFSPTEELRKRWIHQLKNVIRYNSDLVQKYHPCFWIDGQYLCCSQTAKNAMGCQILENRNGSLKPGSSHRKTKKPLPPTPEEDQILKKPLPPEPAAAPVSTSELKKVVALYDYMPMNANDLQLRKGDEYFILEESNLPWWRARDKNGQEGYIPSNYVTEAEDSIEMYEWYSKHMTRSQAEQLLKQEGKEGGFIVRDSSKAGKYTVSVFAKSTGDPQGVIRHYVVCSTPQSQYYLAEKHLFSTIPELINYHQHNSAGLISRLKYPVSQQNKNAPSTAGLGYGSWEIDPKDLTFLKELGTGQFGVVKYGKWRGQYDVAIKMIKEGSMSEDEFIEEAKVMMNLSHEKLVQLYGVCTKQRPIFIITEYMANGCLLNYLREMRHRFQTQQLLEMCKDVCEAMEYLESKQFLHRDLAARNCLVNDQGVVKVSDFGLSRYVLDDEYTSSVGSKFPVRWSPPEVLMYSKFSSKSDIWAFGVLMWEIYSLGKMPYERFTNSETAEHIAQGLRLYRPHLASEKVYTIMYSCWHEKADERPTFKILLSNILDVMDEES

Cc1nc(N2CC[C@@H](O)C2)ncc1-c1cc(C(F)(F)F)cc2[nH]ncc12 [TP-004]
active: residual activity [41] 41% | inhibition [45] 75.2%
inactive: residual activity [1] 63% | residual activity [2] 100% | residual activity [3] 95% | residual activity [4] 100% | residual activity [5] 94% | residual activity [6] 68% | residual activity [7] 88% | residual activity [8] 100% | residual activity [9] 80% | residual activity [10] 79% | residual activity [11] 77% | residual activity [12] 100% | residual activity [13] 83% | residual activity [14] 100% | residual activity [15] 100% | residual activity [16] 73% | residual activity [17] 86% | residual activity [18] 66% | residual activity [19] 74% | residual activity [20] 82% | residual activity [21] 100% | residual activity [22] 60% | residual activity [23] 67% | residual activity [24] 87% | residual activity [25] 68% | residual activity [26] 64% | residual activity [27] 76% | residual activity [28] 93% | residual activity [29] 71% | residual activity [30] 52% | residual activity [31] 56% | residual activity [32] 66% | residual activity [33] 100% | residual activity [34] 93% | residual activity [35] 100% | residual activity [36] 100% | residual activity [37] 100% | residual activity [38] 91% | residual activity [39] 100% | residual activity [40] 100% | residual activity [42] 86% | residual activity [43] 100% | inhibition [44] -2.1%
